Reference: ChEMBL document CHEMBL1201862, “PubChem BioAssay data set” (2004)
Values belong to the compound of their own block, whether it stands above or below them. Active and inactive are the calls of the source.

How the values were obtained:
[1] = cytotoxicity toward NIH3T3 fibroblasts, dose response, counter-screen, cell-based, ATP luminescence, mouse fibroblasts (AID 2010); type: functional;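 also: cells exposed to compound for about 90 hours before reading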
[2] = inhibitors of intracellular T. cruzi replication, confirmation, NIH3T3 host cells, beta-gal luminescence (AID 2044); type: functional, cell-based;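 also: intracellular parasites grown in NIH/3T3 mouse fibroblasts as host cells; luminescent beta-galactosidase reporter signal from transgenic T. cruzi replicating inside host cells; inhibitors lower the luminescence signal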
[3] = Luminescence Cell-Based Secondary HTS screen to identify cytotoxic compounds of NIH3T3 cells. [Related pubchem assays: 1885, 1968 ]; type: functional
[4] = Glucagon-like peptide 1 release potency, NCI-H716 cell line, dose-response, half-maximal inhibitory concentration (AID 1117344); type: functional, cell-based
[5] = half-maximal inhibitory concentration for glucagon-like peptide-1 release, STC-1 cell line, dose-response (AID 1117345); type: functional, cell-based
Genome polyprotein = Genome polyprotein (Hepatitis C virus, UniProt Q2Q167); experiment: HCV core protein dimerization inhibitors, dose response, biochemical, TR-FRET (AID 2159); design: species or system Hepacivirus hominis;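 also: blocks dimerization of HCV core protein measured by TR-FRET between tagged core106 pairs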
Chain of Genome polyprotein (Q2Q167 whole entry): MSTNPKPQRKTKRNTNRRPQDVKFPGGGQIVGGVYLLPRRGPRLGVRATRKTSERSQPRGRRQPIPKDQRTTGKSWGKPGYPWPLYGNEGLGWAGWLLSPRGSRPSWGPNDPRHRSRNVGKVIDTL

[6] = target: T1, Probable nicotinate-nucleotide adenylyltransferase (Staphylococcus aureus (strain N315), UniProt P65502); type: functional, Staphylococcus aureus subsp. aureus N315; conditions: read-out: IC50_Mean;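 as to IC50 Mean: confirmatory dose-response retesting of NadD inhibitor hits first found in an ultra-high-throughput screen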
[7] = target: T1, Probable nicotinate-nucleotide adenylyltransferase; type: functional, Staphylococcus aureus subsp. aureus N315
Coagulation factor XII = target: T2, Coagulation factor XII (Homo sapiens, UniProt P00748); type: functional;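 also: activated factor XIIa alpha cleaving a fluorogenic AMC peptide substrate; inhibitor potency from loss of enzyme activity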
T2 sequence (P00748 whole entry): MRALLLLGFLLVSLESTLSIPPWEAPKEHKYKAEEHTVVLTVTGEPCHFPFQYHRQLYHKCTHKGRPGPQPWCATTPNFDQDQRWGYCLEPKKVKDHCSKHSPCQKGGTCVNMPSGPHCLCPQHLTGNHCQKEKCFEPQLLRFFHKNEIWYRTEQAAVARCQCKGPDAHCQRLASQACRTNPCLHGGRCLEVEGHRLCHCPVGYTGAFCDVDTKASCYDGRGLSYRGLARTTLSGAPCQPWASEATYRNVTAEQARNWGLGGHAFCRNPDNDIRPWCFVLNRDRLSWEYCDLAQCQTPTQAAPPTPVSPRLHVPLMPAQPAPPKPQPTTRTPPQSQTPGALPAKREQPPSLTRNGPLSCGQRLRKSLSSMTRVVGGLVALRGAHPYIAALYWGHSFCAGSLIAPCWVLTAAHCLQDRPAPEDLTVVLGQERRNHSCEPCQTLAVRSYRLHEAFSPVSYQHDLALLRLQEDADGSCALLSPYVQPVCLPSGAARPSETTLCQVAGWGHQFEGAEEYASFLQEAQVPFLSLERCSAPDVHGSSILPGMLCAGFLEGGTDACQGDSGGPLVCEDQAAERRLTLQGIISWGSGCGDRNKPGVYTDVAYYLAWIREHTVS

[8] = growth suppression of beta-catenin-knockout colon cells, dose response, cell-based, HCT116, human colon tumor (AID 1045); type: functional;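 also: HCT116 colon tumor cells with beta catenin knocked out; cells exposed to compound for 60 hours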
[9] = target: DNA damage-inducible transcript 3 protein (Mus musculus, UniProt P35639); type: functional, Cricetulus griseus
Chain of DNA damage-inducible transcript 3 protein (P35639 whole entry): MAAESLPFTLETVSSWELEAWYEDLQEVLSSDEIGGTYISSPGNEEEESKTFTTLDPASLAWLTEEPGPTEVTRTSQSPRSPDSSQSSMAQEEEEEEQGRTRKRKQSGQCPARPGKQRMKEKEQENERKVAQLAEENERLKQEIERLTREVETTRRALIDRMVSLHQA

[10] = target: T3, Mannose-6-phosphate isomerase (Homo sapiens, UniProt P34949); experiment: human PMI inhibitors, high substrate, primary screen, biochemical, fluorescence intensity, high mannose 6-phosphate (AID 1220)
T3 sequence (P34949 whole entry): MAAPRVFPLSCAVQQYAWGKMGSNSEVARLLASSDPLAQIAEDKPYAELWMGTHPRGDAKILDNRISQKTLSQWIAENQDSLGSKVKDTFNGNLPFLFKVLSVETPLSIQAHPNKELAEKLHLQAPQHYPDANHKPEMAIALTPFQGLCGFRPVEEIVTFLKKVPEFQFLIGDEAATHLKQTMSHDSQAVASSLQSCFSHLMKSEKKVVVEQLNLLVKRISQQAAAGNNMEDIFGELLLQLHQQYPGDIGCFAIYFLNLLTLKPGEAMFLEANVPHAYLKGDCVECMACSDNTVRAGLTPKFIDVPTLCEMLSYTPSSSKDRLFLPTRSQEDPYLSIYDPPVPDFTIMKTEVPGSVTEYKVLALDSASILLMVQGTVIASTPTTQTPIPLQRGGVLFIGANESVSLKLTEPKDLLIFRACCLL

[11] = growth suppression of PTEN-null colon cells, dose response, cell-based, HCT116 PTEN knockout (AID 1047); type: functional;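 also: HCT116 colon tumor cells with PTEN knocked out; cells exposed to compound for 60 hours before readout; potency for loss of cell viability measured by luminescence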
Cytochrome P450 2C19 = Cytochrome P450 2C19 (Homo sapiens, UniProt P33261); experiment: qHTS Assay for Inhibitors and Substrates of Cytochrome P450 2C19. [Related pubchem assays: 410 ]; type: ADME; conditions: read-out: Potency
Chain of Cytochrome P450 2C19 (P33261 whole entry): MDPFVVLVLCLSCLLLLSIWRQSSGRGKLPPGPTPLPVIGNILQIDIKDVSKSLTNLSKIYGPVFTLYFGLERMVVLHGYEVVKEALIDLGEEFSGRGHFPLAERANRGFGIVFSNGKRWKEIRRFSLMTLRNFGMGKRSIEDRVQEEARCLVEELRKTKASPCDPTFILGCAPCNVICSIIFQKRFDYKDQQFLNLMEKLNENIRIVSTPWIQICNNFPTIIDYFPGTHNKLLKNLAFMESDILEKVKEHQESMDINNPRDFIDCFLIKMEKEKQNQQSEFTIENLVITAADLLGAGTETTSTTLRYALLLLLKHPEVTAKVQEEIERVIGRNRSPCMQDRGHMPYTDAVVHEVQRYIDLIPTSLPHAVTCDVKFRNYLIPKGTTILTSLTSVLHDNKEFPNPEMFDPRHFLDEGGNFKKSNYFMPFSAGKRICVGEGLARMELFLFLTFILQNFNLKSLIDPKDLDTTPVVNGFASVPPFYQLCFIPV

[12] = ADAM10 protease inhibitors, dose response, selectivity assay for ADAM17 exosite inhibitor project, biochemical, FRET peptide substrate, recombinant human ADAM10 (AID 743259);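 also: ADAM10 enzyme cleaving a FRET peptide substrate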
[13] = target: Disintegrin and metalloproteinase domain-containing protein 17 (Homo sapiens, UniProt P78536); experiment: exosite inhibitors of ADAM17, dose response, biochemical (AID 743260)
Chain of Disintegrin and metalloproteinase domain-containing protein 17 (P78536 whole entry, the tested form may be a part): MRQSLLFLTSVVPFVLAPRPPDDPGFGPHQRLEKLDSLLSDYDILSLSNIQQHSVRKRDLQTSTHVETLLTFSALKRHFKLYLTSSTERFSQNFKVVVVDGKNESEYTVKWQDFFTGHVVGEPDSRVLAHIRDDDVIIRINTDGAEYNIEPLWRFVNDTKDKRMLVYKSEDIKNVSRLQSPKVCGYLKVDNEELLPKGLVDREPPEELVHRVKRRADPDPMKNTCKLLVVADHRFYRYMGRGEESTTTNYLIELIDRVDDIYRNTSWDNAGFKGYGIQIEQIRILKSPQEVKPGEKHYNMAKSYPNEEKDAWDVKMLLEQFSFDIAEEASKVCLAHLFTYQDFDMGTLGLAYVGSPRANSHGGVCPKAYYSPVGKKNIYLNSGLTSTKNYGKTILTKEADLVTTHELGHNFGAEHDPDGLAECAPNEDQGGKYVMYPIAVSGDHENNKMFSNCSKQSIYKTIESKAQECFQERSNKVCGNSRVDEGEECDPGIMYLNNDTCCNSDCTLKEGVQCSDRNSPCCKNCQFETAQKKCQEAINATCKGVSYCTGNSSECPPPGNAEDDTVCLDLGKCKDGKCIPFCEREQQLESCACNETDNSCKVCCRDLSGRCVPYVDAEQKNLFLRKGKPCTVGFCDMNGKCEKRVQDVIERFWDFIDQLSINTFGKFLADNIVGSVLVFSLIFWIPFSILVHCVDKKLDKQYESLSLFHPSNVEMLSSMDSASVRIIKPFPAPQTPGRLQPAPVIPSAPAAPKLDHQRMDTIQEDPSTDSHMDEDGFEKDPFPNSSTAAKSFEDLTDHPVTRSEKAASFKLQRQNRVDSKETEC

[14] = T. cruzi intracellular amastigote growth inhibition, dose response, imaging, CA-I/72 strain, bovine embryo skeletal muscle, dry powder (AID 651885); type: functional, cell-based
[15] = growth inhibition of intracellular T. cruzi, dose response, cell-based, plate reader, dry powder samples (AID 651845); type: functional
Estrogen receptor beta = Estrogen receptor beta (Homo sapiens, UniProt Q92731);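 also: recombinant ER-beta bound to coactivator SRC1 peptide in presence of estradiol agonist; inhibitors block coactivator peptide binding and lower the FRET signal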
Chain of Estrogen receptor beta (Q92731 whole entry): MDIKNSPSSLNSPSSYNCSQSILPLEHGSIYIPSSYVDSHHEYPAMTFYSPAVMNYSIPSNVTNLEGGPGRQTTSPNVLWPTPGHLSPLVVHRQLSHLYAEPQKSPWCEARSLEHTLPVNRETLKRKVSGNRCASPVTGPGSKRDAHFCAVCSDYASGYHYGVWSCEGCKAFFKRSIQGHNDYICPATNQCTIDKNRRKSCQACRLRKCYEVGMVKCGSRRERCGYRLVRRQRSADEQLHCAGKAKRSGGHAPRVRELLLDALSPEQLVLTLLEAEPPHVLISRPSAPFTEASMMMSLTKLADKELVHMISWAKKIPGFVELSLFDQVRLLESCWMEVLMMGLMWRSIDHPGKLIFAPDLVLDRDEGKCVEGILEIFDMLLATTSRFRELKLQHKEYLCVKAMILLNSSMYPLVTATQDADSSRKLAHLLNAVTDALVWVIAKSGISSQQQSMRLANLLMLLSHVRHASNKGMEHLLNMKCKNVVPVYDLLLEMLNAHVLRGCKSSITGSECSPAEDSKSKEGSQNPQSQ

[16] = P. falciparum Dd2 growth inhibitors, dose response, SYBR Green, dry powder samples, set 9 (AID 1159568); type: functional, cell-based

Structure (SMILES): COCc1cc(CN2CCCC(CNC(=O)c3ccc(F)cc3)C2)ccc1OC (centres undefined)
EC50 [1]: > 60 µM (not active) | EC50 [2]: 0.118 µM (active) | EC50 [3]: > 195 µM (not active)

Structure (SMILES): CCCOC(C(=O)OC1CCN(C)CC1)(c1ccccc1)c1ccccc1
IC50 [4]: > 40 µM (inactive) | IC50 [5]: 23.8 µM (inactive)

Structure (SMILES): Cc1ccc(C2CC(c3cccs3)=NN2C(=O)CSc2nc(=O)n3ccc(C)cc3n2)cc1 (centres undefined)
EC50 [1]: > 60 µM (not active) | EC50 [2]: 2.54 µM (active) | IC50 (Genome polyprotein): > 49.8 µM (not active) | IC50 [6]: 25.4 µM (active) | IC50 [7]: 5.52 µM (active)

Structure (SMILES): COc1cc(C(=O)O/N=C2\C=CC(=O)C(C)=C2)cc(OC)c1OC
IC50 (Coagulation factor XII): 0.623 µM (active) | EC50 [8]: 3.63 µM (active) | Absolute IC50 (CHOP) [9]: 10 µM | IC50 [10]: > 50 µM (not active) | EC50 [11]: 5.17 µM (active)

AC50 (Cytochrome P450 2C19): 6.31 µM (inconclusive)
Structure (SMILES): O=C(CCc1ccc(O)cc1)c1c(O)cc(O)cc1O[C@@H]1O[C@@H](CO)[C@@H](O)[C@@H](O)[C@H]1O

Structure (SMILES): CCC(c1nnnn1Cc1ccccc1)N1CCC2(CC1)C(=O)NCN2c1ccccc1 (centres undefined)
IC50 [12]: > 69.4 µM (inactive) | IC50 [13]: > 69.4 µM (inactive)

Structure (SMILES): C[C@@H]1CN([C@@H](C)CO)C(=O)c2cccc(NC(=O)c3ccncc3)c2O[C@H]1CN(C)Cc1ccccc1Cl
IC50 [14]: 0.0114 µM (active) | AC50 [15]: 0.158 µM (active)

Structure (SMILES): COc1cc(Nc2c(C#N)cnc3cc(OCCCN4CCN(C)CC4)c(OC)cc23)c(Cl)cc1Cl
IC50 [4]: 25.1 µM (inactive) | IC50 [5]: > 40 µM (inactive)

IC50 (Estrogen receptor beta): 5.09 µM (active)
Structure (SMILES): CCC(=O)Nc1ccc(C(=O)Cn2nc(C(=O)O)c3ccccc3c2=O)cc1

Structure (SMILES): CCCNC(=O)N1[C@H](C#N)[C@H](c2ccccc2-c2ccc(OC)cc2)[C@@H]1CO
AC50 [16]: 3.54 µM (active)
